Results taken from patent US20240426807A1, “SCREENING SYSTEM” (Givaudan SA, priority 2021, published 2024).
Entries after “also recorded” stand apart in the source; their conditions may differ.

Experiments:
Type in all cases: cell-based
[1] = target: T1, OR10G7 (Homo sapiens, UniProt Q8NGN6, T5S); assay: Ligand-induced OR-dependent puromycin resistance, OR10G7 cells; settings: HEK293T, pGL4.29-CRE-Puro-Hygro-OR with OR10G7; musk ketone 10 μM, eugenol or isoeugenol 1 μM, ultravanil or vanitrope 100 μM; puromycin 0.015-16 μg/ml; PrestoBlue viability day 4
T1 construct: expressed in transfected cells
T1 sequence (Q8NGN6 1-311 T5S): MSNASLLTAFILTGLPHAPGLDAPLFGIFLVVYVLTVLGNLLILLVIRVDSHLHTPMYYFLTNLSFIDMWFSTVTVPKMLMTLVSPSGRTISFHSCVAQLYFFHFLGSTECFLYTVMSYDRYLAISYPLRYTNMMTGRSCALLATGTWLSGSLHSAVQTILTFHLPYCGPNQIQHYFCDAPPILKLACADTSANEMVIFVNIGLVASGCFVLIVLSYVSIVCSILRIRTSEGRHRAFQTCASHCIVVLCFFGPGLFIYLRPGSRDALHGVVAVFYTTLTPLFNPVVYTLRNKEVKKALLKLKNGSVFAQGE
Procedure: (§1) Stable clones selected with hygromycin containing a stable insertion of the pGL4.29-CRE-Puro-Hygro-OR construct described in Example 1 with either one of the receptors OR10G7, OR10G9 or OR5AN1 (NCBI Genbank Gene ID 390265, 219870 and 390195) were plated at a density of 3000 cells/per well in 200 μl Dubelcco's Modified Eagle medium (DMEM) in polyethyleneimide-coated, white 96 well microtiter plates with a transparent bottom. After cells were allowed to adhere for 24 h, they were exposed to different odorants (musk ketone at 10 μM, eugenol or isoeugenol at 1 μM, ultravanil or vanitrope at 100 μM). 7 h after odorant addition, 100 μl of the medium was removed and replaced with fresh medium with the same odorant concentrations and, in addition, puromycin to reach a final concentration of 0.015-16 μg/ml in 11 twofold dilution steps (day 1 of selection). On day 2 and 3, 100 μl of the medium was again removed and replaced with fresh medium with the same concentration of odorant and puromycin. On day 4 of the selection, medium from each well was removed completely, 100 ul PrestoBlue® cell viability reagent (ThermoFisher Scientific, Catalog No: 14200-083) diluted in phosphate buffered saline was added to each well and cells were incubated at 37° C. until a color change was visible in the wells containing no puromycin. The fluorescence was determined at 560 excitation and 590 nm emission to assess relative cell metabolic activity, which is the net result of cell growth and cell killing in presence of the different puromycin concentrations. The result was expressed as % viability relative to controls with no cells (0%) and cells treated with olfactory ligand only (100%).

[2] = target: T2, pool of cells with OR5A1, OR5A2, OR5AN1, OR6Y1, OR10G4, OR10G7 or OR10G9 (Homo sapiens, UniProt Q8NGN3); assay: Selection of cognate-receptor cells from a pool of OR-expressing cells with the target ligand and puromycin; settings: 100 μM vanitrope, puromycin 1 μg/ml, pool of 7 OR transfections
T2 construct: expressed in transfected cells; host or cells: HEK293T stably expressing RTP1S and RTP2; 7 separate transfections pooled
T2 sequence (Q8NGN3 1-311): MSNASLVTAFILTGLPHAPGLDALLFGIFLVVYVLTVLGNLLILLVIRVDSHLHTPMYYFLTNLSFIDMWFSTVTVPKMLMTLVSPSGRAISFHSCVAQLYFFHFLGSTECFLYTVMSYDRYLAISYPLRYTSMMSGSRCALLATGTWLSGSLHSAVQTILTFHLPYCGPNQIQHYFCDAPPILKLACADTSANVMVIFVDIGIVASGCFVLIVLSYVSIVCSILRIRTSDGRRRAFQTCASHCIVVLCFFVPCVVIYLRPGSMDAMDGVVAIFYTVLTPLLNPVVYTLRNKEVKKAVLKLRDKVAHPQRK
Procedure: For many ligands the cognate OR receptors are not known (“orphan receptors”), or it is unknown among a pool of receptors, which one has the best affinity for a ligand of interest, e.g. a perfumery note of particular interest. Thus, the ligand-induced selection pressure can be used to enrich a specific OR-expressing cell from a pool of OR-expressing cells in the presence of a ligand of interest. HEK293T cells stably expressing RTP1S and RTP2 were seeded into 7 wells of 6-well plates at 330,000 cells/well.
The next day, the cells of each well were transfected with 2 μg of a PvuI-linearized pGL4.29-CRE-Puro-Hygro-OR construct harboring one of the receptors OR5A1 (NCBI Genbank Gene ID: 219982), OR5A2 (NCBI Genbank Gene ID: 219981), OR5AN1 NCBI Genbank Gene ID: 390195, SEQ ID NO: 70), OR6Y1 (NCBI Genbank Gene ID: 391112), OR10G4 (NCBI Genbank Gene ID: 390264, SEQ ID NO: 72), OR10G7 (NCBI Genbank Gene ID: 390265, SEQ ID NO: 71), or OR10G9 (NCBI Genbank Gene ID: 219870). 24 h after transfection, the cells of all 7 transfections were harvested and pooled. 350 cells of this pool of cells with different OR genes inserted were then seeded into each well of seven 96-well plates.
3 days later, cells were stimulated with ligands for either OR5AN1 (10 μM musk ketone), OR10G7 (1 μM eugenol), or OR10G4 (100 μM vanitrope). One plate was treated with DMSO only. 6h after the addition of the OR ligands, puromycin was added to each plate at a final concentration of 1 μg/ml. On every day during the following week, the medium on all plates was replaced with fresh medium containing the corresponding ligand and puromycin. The plates were then searched for wells containing only a single colony of puromycin-resistant cells. The cells of those colonies were transferred to larger plates and grown until they had multiplied to about 8 Mio cells. The genomic DNA of 2 Mio cells of each clone were isolated using the Puregene kit according to the manufacturer's protocol. […]

[3] = target: T3, OR10G9 (Homo sapiens, UniProt Q8NGN4); assay: Ligand-induced OR-dependent puromycin resistance, OR10G9 cells; settings: HEK293T, pGL4.29-CRE-Puro-Hygro-OR with OR10G9; musk ketone 10 μM, eugenol or isoeugenol 1 μM, ultravanil or vanitrope 100 μM; puromycin 0.015-16 μg/ml; PrestoBlue viability day 4
T3 construct: expressed in transfected cells
T3 sequence (Q8NGN4 1-311): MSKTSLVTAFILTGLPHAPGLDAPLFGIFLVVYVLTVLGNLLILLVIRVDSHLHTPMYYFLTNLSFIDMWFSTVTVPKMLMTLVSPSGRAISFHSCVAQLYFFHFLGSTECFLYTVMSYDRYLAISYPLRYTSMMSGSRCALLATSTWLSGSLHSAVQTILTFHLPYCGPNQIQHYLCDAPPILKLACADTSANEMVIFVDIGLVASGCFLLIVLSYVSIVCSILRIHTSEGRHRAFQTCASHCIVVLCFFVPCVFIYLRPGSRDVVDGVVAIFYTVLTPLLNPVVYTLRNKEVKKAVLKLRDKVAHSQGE
Procedure: as §1

[4] = target: T4, OR5AN1 (Homo sapiens, UniProt Q8NGI8); assay: Ligand-induced blasticidin resistance, OR5AN1 cells (pGL4.29-CRE-BLAST-OR); settings: HEK293T OR5AN1, odorant 10 μM, blasticidin 0.5-256 μg/ml, PrestoBlue viability day 4
T4 construct: expressed in transfected cells
T4 sequence (Q8NGI8 1-311): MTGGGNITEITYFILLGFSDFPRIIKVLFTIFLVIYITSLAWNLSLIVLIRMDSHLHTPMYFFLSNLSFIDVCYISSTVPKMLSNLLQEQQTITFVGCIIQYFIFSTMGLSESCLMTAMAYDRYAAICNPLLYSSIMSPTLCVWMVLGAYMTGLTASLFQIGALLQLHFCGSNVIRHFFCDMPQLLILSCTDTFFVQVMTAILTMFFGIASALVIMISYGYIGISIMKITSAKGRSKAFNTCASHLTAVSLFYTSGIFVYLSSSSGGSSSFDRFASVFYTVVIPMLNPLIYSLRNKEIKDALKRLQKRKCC
From the text: To generate a vector allowing positive selection of cell clones with a functional expression of a specific OR gene, a blasticidin resistance gene was placed downstream of SEQ ID NO: 4. The pGL4.29-CRE-Puro-OR vector generated as described in Example 1 was digested with BgIII and FseI to remove the comprised basal promoter and the complete puromycin resistance gene. The removed basal promoter sequence was amplified with the primers […] (SEQ ID NO: 28), […] (SEQ ID NO: 63), and the blasticidin S deaminase (bsd, SEQ ID NO: 64) encoding sequence was amplified by PCR using the primers […] (SEQ ID NO: 66) […] (SEQ ID NO: 67). The two overlapping PCR products were joined by fusion PCR using primers […] (SEQ ID NO: 28) and […] (SEQ ID NO: 68). The resulting DNA fragment was digested with BgIII/FseI and ligated into the digested vector to generate pGL4.29-CRE-Blast-OR.
This vector was used to generate stable cell lines as described in Example 1.
Stable clones containing a stable insertion of the pGL4.29-CRE-BLAST-OR construct with the receptor OR5AN1 (NCBI Genbank Gene ID: 390195) were then plated at a density of 3000 cells/per well in 100 μl Dubelcco's Modified Eagle medium (DMEM) in polyethyleneimide-coated, white 96 well microtiter plates with a transparent bottom. After cells were allowed to adhere for 24 h, 50 μl of medium containing different odorants (musk ketone or ethyl vanillin at 40 μM) was added to each well resulting in an odorant concentration of 13.3 μM. 6 h after odorant addition, 50 μl of medium containing blasticidin was added to reach a final concentration of 0.5-256 μg/ml in 10 two-fold dilution steps (day 1 of selection). This step further diluted the odorant to 10 μM. On day 4 of the selection (72 h after blasticidin addition), medium from each well was removed completely, 100 μl PrestoBlue® cell viability reagent (ThermoFisher Scientific, Catalog No: 14200-083) diluted in phosphate buffered saline containing 1 mg/ml glucose was added to each well and cells were incubated at 37° C. until a color change was visible in the wells containing no blasticidin. The fluorescence was determined at 560 excitation and 590 nm emission to assess relative cell metabolic activity, which is the net result of cell growth and cell killing in presence of the different blasticidin concentrations. The result was expressed as % viability relative to controls with no cells (0%) and cells treated with olfactory ligand only (100%).

[5] = target: T5, OR5A2 (clone 3) (Homo sapiens, UniProt Q8NGI9); assay: Ligand-induced puromycin resistance of isolated clone 3 containing OR5A2; settings: for puromycin resistance of clone 3 in presence of odorant: clone 3 (OR5A2), 11 concentrations of puromycin, co-treated with olfactory ligands
T5 construct: expressed in transfected cells; clone 3 selected with musk ambrette and puromycin
T5 sequence (Q8NGI9 with tags, fused parts or gaps): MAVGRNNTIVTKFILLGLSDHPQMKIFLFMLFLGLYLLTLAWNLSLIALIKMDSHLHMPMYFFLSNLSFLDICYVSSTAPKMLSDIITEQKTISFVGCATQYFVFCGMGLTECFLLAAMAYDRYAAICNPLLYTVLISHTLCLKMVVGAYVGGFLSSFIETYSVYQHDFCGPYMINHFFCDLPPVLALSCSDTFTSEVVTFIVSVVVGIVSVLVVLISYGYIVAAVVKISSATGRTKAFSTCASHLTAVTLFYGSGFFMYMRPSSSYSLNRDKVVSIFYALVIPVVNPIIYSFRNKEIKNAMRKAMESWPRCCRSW

[6] = target: T4, OR5AN1; assay: Ligand-induced OR-dependent puromycin resistance, OR5AN1 cells; settings: HEK293T, pGL4.29-CRE-Puro-Hygro-OR with OR5AN1; musk ketone 10 μM, eugenol or isoeugenol 1 μM, ultravanil 100 μM; puromycin 0.015-16 μg/ml; PrestoBlue viability day 4
Procedure: as §1

C/C=C/c1ccc(OCC)c(O)c1 [vanitrope, propenyl guaethol]
puromycin resistance in presence of odorant versus solvent control [1]: increased resistance to puromycin; also recorded: strongly enhanced puromycin resistance | colonies selected with the ligand that contained OR10G4 [2]: 8 out of 8 | puromycin resistance in presence of odorant versus solvent control [3]: increased resistance to puromycin; also recorded: selectively enhanced resistance

CCOc1cc(C=O)ccc1O [ethyl vanillin]
blasticidin resistance in presence of odorant versus solvent control [4]: equally sensitive to blasticidin as in presence of the solvent control | blasticidin resistance in presence of odorant versus solvent control ([4]; listed as ethylvanillin): does not increase resistance over solvent control

COc1c(C(C)(C)C)cc([N+](=O)[O-])c(C)c1[N+](=O)[O-] [musk ambrette]
puromycin resistance of clone 3 in presence of odorant [5]: increased resistance to puromycin | survival of clone 3 under puromycin treatment with ligand ([5]; musk ambrette 30 μM, puromycin 3 μg/ml, continuous exposure): able to survive puromycin treatment in presence of the ligand musk ambrette but not in its absence

CC=Cc1ccc(O)c(OC)c1 [isoeugenol]
puromycin resistance in presence of odorant versus solvent control [1]: increased resistance to puromycin; also recorded: strongly enhanced puromycin resistance | puromycin resistance in presence of odorant versus solvent control [6]: do not increase resistance over solvent control; also recorded: the resistance was equal to the solvent control | puromycin resistance in presence of odorant versus solvent control [3]: no increased resistance

CC(OC(C)(C)COC(=O)C1CC1)C1CCCC(C)(C)C1 (centres unmarked) [serenolide]
puromycin resistance of clone 3 in presence of odorant [5]: increased resistance to puromycin

CCOc1cc(C)ccc1O [ultravanil, vanilla cresol]
puromycin resistance in presence of odorant versus solvent control [1]: increased resistance to puromycin; also recorded: strongly enhanced puromycin resistance | puromycin resistance in presence of odorant versus solvent control [6]: do not increase resistance over solvent control; also recorded: the resistance was equal to the solvent control | puromycin resistance in presence of odorant versus solvent control [3]: increased resistance to puromycin; also recorded: selectively enhanced resistance
